{
  "source": "patent EP1466611A1",
  "about": "“Use of HCG derived peptides in the treatment of iatrogenic diseases” (Biotempt B.V., priority 2003, dated 2004)",
  "test_system": "NF-kB",
  "test": "NF-kB translocation by EMSA on nuclear extracts of RAW 264.7 mouse macrophages, basal and LPS induced (second experiment)",
  "assay_type": "cell-based",
  "details": "RAW264.7 cells, LPS in combination with peptide, 30 minutes of incubation, peptide 1 microgr/ml or 1 mg/ml",
  "protocol": "RAW 264.7 mouse macrophages were cultured in DMEM, containing 10% or 2% FBS, penicillin, streptomycin and glutamine, at 37 °C, 5% CO2. […] After 30 minutes of incubation plates were centrifuged and cells were collected for nuclear extracts. Nuclear extracts and EMSA were prepared according to Schreiber et al. Cells were collected in a tube and centrifuged for 5 minutes at 2000 rpm (rounds per minute) at 4°C (Universal 30 RF, Hettich Zentrifuges). The pellet was washed with ice-cold Tris buffered saline (TBS pH 7.4) and resuspended in 400 μl of a hypotonic buffer A (10 mM HEPES pH 7.9, 10 mM KCl, 0.1 mM EDTA, 0.1 mM EGTA, 1 mM DTT, 0.5 mM PMSF and protease inhibitor cocktail (Complete^TM Mini, Roche) and left on ice for 15 minutes. Twenty five micro litre 10% NP-40 was added and the sample was centrifuged (2 minutes, 4000 rpm, 4°C). The supernatant (cytoplasmic fraction) was collected and stored at -70°C. […] The samples were left to shake at 4°C for at least 60 minutes. Finally the samples were centrifuged and the supernatant (nucleic fraction) was stored at -70°C. Bradford reagent (Sigma) was used to determine the final protein concentration in the extracts. […] Hundred pico mol sense and antisense oligo were annealed and labelled with […] using T4 polynucleotide kinase according to the manufacture's instructions (Promega, Madison, WI). […]",
  "note": "Ends that are not written are not given here.",
  "data": [
    {"substance": "circular LQGVLPALPQVVC (also: circular / cyclised, mode of ring closure not given here) [NFkappaB down-regulating peptide]", "values": [
      {"measurement": "LPS induced translocation of NF-kB", "result": "inhibition"}
    ]}
  ]
}
